Measurements as given in article PMC7822874, “Chemoprotective antimalarials identified through quantitative high-throughput screening of Plasmodium blood and liver stage parasites” (Scientific Reports, 2021).
Read-outs that look alike come from different tables or passages of the source.

What was measured:
[1] = test system: Plasmodium falciparum Dd2 asexual blood stage parasites; assay: microbe, parasite or virus in culture; set-up: species or system Plasmodium falciparum Dd2 in human erythrocytes; single determination (one 11-point concentration-response curve); settings: Plasmodium falciparum, DD2, Erythrocyte, 72 h
in vitro = settings: human
[2] = HepG2-A16-CD81EGFP cells, uninfected

| Structure (SMILES) | AC50 ([1]; read-out: AC50) [µM] | viability at 48 h, 1 µM (in vitro; [2]) [%] | viability at 48 h, 3 µM (in vitro; [2]) [%] | also measured |
| --- | --- | --- | --- | --- |
| CCC(=O)N1CCc2cc(Br)cc(S(=O)(=O)N3CCCC(C(=O)NC(C)(C)C)C3)c21 (stereo not drawn) [MLS000937025-01] | 3.35 | 98.3 |  | viability at 48 h (in vitro; [2]): 98.3% |
| Cc1ccccc1C(=O)NC(CC(C)C)C(=O)OCC(=O)c1c(N)n(C)c(=O)n(C)c1=O (stereo not drawn) [MLS001033160-01] | 2.66 |  |  | viability at 66 h (in vitro; [2]): 106% |
| CCCc1nnc(NC(=O)c2cn(CC)c3cc(N4CCN(C)CC4)c(F)cc3c2=O)s1 [MLS001049245-01] | 8.41 |  |  | viability at 66 h (in vitro; [2]): 105% |
| COc1ccc(C(CCN2CCCCC2)c2c(O)cc(OC)cc2OC)cc1 (stereo not drawn) [MLS000879486-01] | 1.33 | 90 | 85 |  |
| O=S(=O)(c1ccc2ccccc2c1)N1CCN(C(S)=Nc2ccc(F)c(Cl)c2)CC1 [MLS000394708-01] | 1.06 | 111 | 98 |  |
| CCCNC(=O)c1ccc(N2CCC3(CC2)CC(c2cccc(Br)c2)=NO3)c(NC(=O)c2ccco2)c1 [MLS001074397-01] | 2.99 | 118 | 104 |  |
| CCCCCSc1cc(O)c(C(CNC)C(C)C)cc1OC (stereo not drawn) [MLS000704380-01] | 0.168 |  |  | viability at 48 h, 1 µM (in vitro): 106%; viability at 48 h, 3 µM (in vitro): 101% |
| Cc1cc(NC(=O)CN2CCN(c3ccc(O)cc3)CC2)no1 [MLS000565196-01] | 4.73 | 104 | 107 |  |
| COc1ccc2ccc(O)c(CN3CC=C(c4ccccc4)CC3)c2c1 [MLS000760157-01] | 8.41 |  |  | viability at 48 h, 1 µM (in vitro): 107%; viability at 48 h, 3 µM (in vitro): 101% |
| O=C1C2=C(Nc3ccccc3SC2c2ccco2)c2ccccc21 (stereo not drawn) [MLS000108310-01] | 4.73 | 110 | 99 |  |
| CCn1c2c(c(=N)c3ccccc31)CCC2 [MLS001047391-01] | 6.68 |  |  | viability at 66 h (in vitro; [2]): 97.3% |
| CCSc1nc2sc3c(c2c(=O)n1-c1ccccc1)CCN(C)C3 [MLS001212076-01] | 6.68 | 104 | 103 |  |
| O=C(CN1C2=NCCCN2c2ccccc21)c1ccc(Cl)cc1Cl [MLS000662689-01] | 6.68 | 99 | 94 |  |
| Oc1ccc(Cl)cc1-c1cc(C(F)(F)C(F)F)nc(-c2ccccc2)n1 [MLS000530553-01] | 0.841 | 93 | 87 |  |
| Cc1cc(C(C)c2ccccc2)c(O)c(CN2CCOCC2)c1C (stereo not drawn) [MLS000064176-01] | 2.99 | 108 |  | viability at 48 h (in vitro; [2]): 108% |
| CCCn1c(SCC(=O)Nc2cc(Cl)ccc2Cl)n[nH]c1=O [MLS001002877-01] | 5.31 | 97 | 94 |  |
| Oc1ccc(Br)cc1-c1cc(-c2ccc(Cl)cc2)[nH]n1 [MLS000551526-01] | 2.66 | 88 | 87 |  |
| CCN(CC)CCN1C(=O)c2ccccc2NC1c1ccc(C)cc1 (stereo not drawn) [MLS000558946-01] | 2.99 | 98 | 104 |  |
| CCc1cccc2sc(N3CCN(C(=O)c4ccc([N+](=O)[O-])o4)CC3)nc12 [MLS001234237-01] | 1.06 | 106 | 115 |  |
| Cc1ccc2sc(N3CCN(C(=O)c4ccc([N+](=O)[O-])o4)CC3)nc2c1C [MLS001234068-01] | 5.31 | 111 | 105 |  |
| COc1cc2c3nnc(-c4ccc(F)cc4)c-3cn(Cc3ccccc3F)c2cc1OC [MLS000419426-01] | 3.76 | 113 | 100 |  |
| Cc1cc(Nc2ccc3ccccc3c2)n2ncnc2n1 [MLS000077665-01] | 0.596 | 88 | 86 |  |
| CCCn1c2c(c(=N)c3c1CCC3)CCCC2 [MLS000702605-01] | 10.6 |  |  | viability at 66 h (in vitro; [2]): 93.8% |

| Structure (SMILES) | AC50 ([1]; read-out: AC50) [µM] | viability at 48 h, 1 µM (in vitro; [2]) [%] | viability at 48 h, 3 µM (in vitro; [2]) [%] | also measured |
| --- | --- | --- | --- | --- |
| Cc1cccc(NC2=C(NC(=O)c3ccccc3)C(=O)c3ccccc3C2=O)c1 [MLS000392330-01] | 0.944 | 98 | 95 |  |
| CCc1nc(Nc2ccc3nccnc3c2)c2oc3ccccc3c2n1 [MLS000041713-01] | 2.37 | 104 | 95 |  |
| CCOC(=O)C1=C(C)N=c2sc(=Cc3ccc(OCC(=O)O)cc3)c(=O)n2C1c1cc(OC)c(OC)c(OC)c1 (stereo not drawn) [MLS001178475-01] | 1.88 | 98 |  | viability at 48 h (in vitro; [2]): 98% |
| c1ccc2c(NCCc3c[nH]c4ccccc34)c3ccccc3nc2c1 [MLS001195935-01] | 1.88 | 92 | 83 |  |
| O=c1c2ccccc2nc(/C=C/c2cc(Br)ccc2O)n1CCCO [MLS001197097-01] | 9.44 |  |  | viability at 66 h (in vitro; [2]): 103% |
| CC(NCc1ccc(Cl)cc1Cl)C(O)c1ccccc1 (stereo not drawn) [MLS000582862-01] | 4.73 |  |  | viability at 48 h, 1 µM (in vitro): 120%; viability at 48 h, 3 µM (in vitro): 104% |
| CC(C)CCNC(=O)c1cc(C(=O)c2cc(Br)ccc2O)cn(CCC(C)C)c1=O [MLS000775608-01] | 0.944 |  |  | viability at 66 h (in vitro): 105% |
| C=C(C)CSc1nc2sc3c(c2c(=O)n1C1CCCCC1)CCN(C)C3 [MLS000779440-01] | 2.37 | 98 | 91 |  |
| CC(C)Oc1ccc(CCc2nnc(S)n2Cc2ccccc2)cc1 [MLS000582839-01] | 5.31 | 101 | 103 |  |
| CCOC(=O)c1cnc2ccc(OC)cc2c1Nc1ccc(N2CCN(C)CC2)cc1 [MLS001164177-01] | 1.68 | 98 | 94 |  |
| CC1CCCCN1Cc1c(O)ccc2c(=O)c(-c3nc4ccccc4s3)c(N)oc12 (stereo not drawn) [MLS000591245-01] | 1.06 | 98 | 95 |  |
| O=C1C=C(O)C=CC1=CNNc1ccnc2cc(Cl)ccc12 [MLS000759655-01] | 0.596 | 101 |  | viability at 48 h (in vitro; [2]): 101% |
| O=C(CCl)N(c1ccccc1)c1c[nH]c2ccccc12 [MLS000554103-01] | 2.11 | 100 | 100 |  |
| Cc1cc(O)c(CN2CC=C(c3ccccc3)CC2)cc1C(C)C [MLS001176749-01] | 0.335 |  |  | viability at 48 h, 1 µM (in vitro): 106%; viability at 48 h, 3 µM (in vitro): 105% |
| COc1ccc(N2/C(=C/C(C)=O)NC(=O)c3c(C)cc(C)nc32)cc1 [MLS000088720-01] | 3.35 |  |  | viability at 66 h (in vitro; [2]): 103% |
| O=C(CC[S+](=O)([O-])c1cc(Br)cc2c1N(C(=O)C1CC1)CC2)Nc1ccc(Br)cc1F [NCGC00107188-01] |  |  |  | AC50 [1]: 3.35 µM; viability at 66 h (in vitro; [2]): 94% |
| COc1cc(NC(=O)c2cc3c(Cl)nc4ccccc4c3s2)cc(OC)c1OC [MLS000582472-01] | 4.73 | 90 | 84 |  |
| Cc1nccn1CC(O)Cn1c2ccccc2c2ccccc21 (stereo not drawn) [MLS000527796-01] | 8.41 | 103 |  | viability at 48 h (in vitro; [2]): 103% |
| Cc1cc(N2CCN(C3CCCCC3)CC2)nc2cccc(O)c12 [MLS000118317-01] | 5.31 | 104 | 105 |  |
| O=C(Nc1cccc(-c2nc3ccccc3[nH]2)c1)c1ccc(C(=O)Nc2cccc(-c3nc4ccccc4[nH]3)c2)cc1 [MLS000766212-01] | 2.66 | 105 | 96 |  |
| O=C1/C(=C/Nc2cccc(S(=O)(=O)NC3=NCCCCC3)c2)c2ccccc2C(=O)N1Cc1ccccc1 [MLS000775273-01] | 13.3 |  |  | viability at 66 h (in vitro; [2]): 93.2% |
| Cc1ccccc1Nc1cc(C)c2c(O)cccc2n1 [MLS000586981-01] | 5.31 | 105 | 100 |  |
| CCN1CCN(Cc2ccc(NC(=O)c3cc(NC(=O)c4nccnc4N)cc(OC)c3)cc2C(F)(F)F)CC1 [MLS000911568-01] | 4.73 | 89 | 87 |  |
